Test results as given in BindingDB's records for doi:10.1021/acs.jmedchem.8b00170 (The University of Queensland, 2018).
pIC50: −log10 of the molar value.

Target: Melanocortin receptor 5 (Homo sapiens, UniProt P33032)
Test: Displacement of [125I]-NDP-alpha-MSH from human MC5R LBD expressed in HEK293 cell membranes incubated for 16 to 23 hrs in dark by scintillation proximity assay

Sequence of Melanocortin receptor 5 (P33032 whole entry, the tested form may be a part): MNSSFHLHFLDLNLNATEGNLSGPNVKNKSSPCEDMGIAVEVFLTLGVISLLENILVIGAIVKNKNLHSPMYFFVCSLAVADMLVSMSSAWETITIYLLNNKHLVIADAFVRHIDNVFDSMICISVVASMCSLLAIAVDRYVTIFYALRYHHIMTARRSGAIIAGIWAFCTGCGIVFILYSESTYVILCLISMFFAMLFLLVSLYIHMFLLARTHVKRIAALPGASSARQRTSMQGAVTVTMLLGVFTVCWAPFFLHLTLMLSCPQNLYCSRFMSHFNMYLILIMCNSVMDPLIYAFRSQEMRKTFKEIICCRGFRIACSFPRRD

## CC[C@H](C)[C@@H]1NC(=O)[C@@H]2CCCN2C(=O)[C@@H]2CCCN2C(=O)[C@H]([C@@H](C)CC)NC(=O)[C@H](CO)NC(=O)[C@H](C)NC(=O)[C@H]([C@@H](C)O)NC(=O)[C@@H]2CSSC[C@H](NC1=O)C(=O)N[C@@H](Cc1c[nH]cn1)C(=O)N[C@H](Cc1ccccc1)C(=O)N(C)[C@@H](CCCNC(=N)N)C(=O)N(C)[C@@H](Cc1c[nH]c3ccccc13)C(=O)N[C@@H](CCCNC(=N)N)C(=O)N2
  pIC50: 6.09
